Consider 12 molecules from patent publication US8283344B2, “Method of treating inherited severe neutropenia” (Merck & Co., Inc., priority 2007, dated 2012).

In test [1] the target is T1, Human Polymorphonuclear Leukocyte Elastase (Homo sapiens, UniProt P08246).
T1 construct: Crude extract of human polymorphonuclear leukocytes (PMN) containing elastase activity; from tissue; host or cells: human polymorphonuclear leukocytes (crude extract)
T1 sequence (P08246 30-267): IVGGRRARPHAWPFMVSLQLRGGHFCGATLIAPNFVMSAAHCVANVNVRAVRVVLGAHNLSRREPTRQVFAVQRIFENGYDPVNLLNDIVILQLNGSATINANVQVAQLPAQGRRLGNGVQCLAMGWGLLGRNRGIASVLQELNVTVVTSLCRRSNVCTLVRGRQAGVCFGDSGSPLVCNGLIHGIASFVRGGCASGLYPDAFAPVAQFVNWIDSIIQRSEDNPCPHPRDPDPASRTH
The experiment in a line: Inhibition of human polymorphonuclear leukocyte elastase via hydrolysis of Boc-AAPAN or Boc-AAPVN. The class given is biochemical. The following applies: second order rate constant for inactivation of the enzyme; crude human PMN extract, pH 7.5; to the nearest thousand; read-out: Kobs/[I]. The procedure:
Enzyme Assays for the Inhibition of Human Polymorphonuclear Leukocyte Elastase Via Hydrolysis of N-t-Boc-alanyl-alanyl-prolylalanine-p-nitroanilide (Boc-AAPAN) or N-t-Boc-alanyl-[…] (Boc-AAPVN) Reagent: • 0.05M TES (N-tris[hydroxymethyl]methyl-2-mino-ethanesulfonic acid) Buffer, pH 7.5. 0.2 mM Boc-AAPAN or Boc-AAPVN.
To prepare substrate, the solid was first dissolved in 10.0 ml DMSO. Buffer at pH 7.5 was then added to a final volume of 100 ml.
Crude extract of human polymorphonuclear leukocytes (PMN) containing elastase activity.
Inhibitors (azetidinones) to be tested dissolved in DMSO just before use.
To 1.0 ml of 0.2 mM Boc-AAPAN in a cuvette, 0.01-0.1 ml of DMSO with or without inhibitor was added. After mixing, a measurement was taken at 410 mµ to detect any spontaneous hydrolysis due to presence of test compound. 0.05 Milliliters of PMN extract was then added and the ΔOD/min at 410 mµ was measured and recorded. Beckman model 35 spectrophotometer was used.
Results were expressed to the nearest thousand k obs/I which is the second order rate constant in per mole per second for inactivation of the enzyme.
The elastase activity in the crude PMN extract may vary from one preparation to another. A control of each new batch is run, and the volume added in the assay procedure is adjusted according to activity.

Test [2] deals with HL-60 cells expressing the del.145-152 mutNE. The experiment in a line: Cell growth and myeloid differentiation of HL-60 cells expressing del.145-152 mutNE. Type of test: cell-based, human. To be noted: HL-60 cells expressing del.145-152 mutNE treated with compound. An excerpt: (§1) We have established a model of SCN with doxycycline-regulated expression of del.145-152 mutant NE in human promyelocytic tet-off HL-60 cells. The ratio of normal-to-mutant NE products is approximately 1:1, which is expected in SCN patients with heterozygous mutation. […] The reduced cell growth and accelerated apoptosis were also observed in response to mutNE expression. Thus, this cellular model of SCN appears to closely recapitulate the human phenotype.

Test [3] has as its target T2, neutrophil elastase (NE) (Homo sapiens, UniProt P08246, DEL174-181).
T2 construct: The ratio of normal-to-mutant NE products is approximately 1:1; expressed in transfected cells; host or cells: human promyelocytic tet-off HL-60 cells
T2 sequence (P08246 with tags, fused parts or gaps DEL174-181): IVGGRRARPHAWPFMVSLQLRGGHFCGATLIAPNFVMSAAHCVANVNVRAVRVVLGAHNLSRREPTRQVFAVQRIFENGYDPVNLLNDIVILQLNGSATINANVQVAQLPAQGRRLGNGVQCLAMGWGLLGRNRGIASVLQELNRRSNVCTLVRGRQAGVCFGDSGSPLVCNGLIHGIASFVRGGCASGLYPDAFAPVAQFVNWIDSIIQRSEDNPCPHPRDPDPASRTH
T2 sequence (P08246 30-267): T1 sequence (P08246 30-267)
The experiment in a line: NE activity in cellular SCN model (tet-off HL-60 cells expressing del.145-152 mutant NE). The class given is cell-based. To be noted: human promyelocytic tet-off HL-60 cells.
Excerpt: as §1

Test [4] deals with control cells expressing normal elastase. The experiment in a line: Growth rate of control cells expressing normal elastase. The class given is cell-based, human. The following applies: inhibition of NE activity.
Excerpt: as §1

Regarding `CCC[C@@H](NC(=O)C1C(=O)C(CC)(CC)[C@@H]1Oc1ccc(C(=O)N2CCN(CC(C)C)CC2)cc1)c1ccc(C)cc1` (stereo partly shown) [Compound 249], the kinact/KI in test [1] was determined as 2.48e+06 M⁻¹ s⁻¹.

On to `CCC[C@@H](NC(=O)C1C(=O)C(CC)(CC)[C@@H]1Oc1ccc(C(=O)N2CCN(C(C)C)CC2)cc1)c1ccc(C)cc1` (stereo partly shown) [Compound 248], for which the kinact/KI in test [1] was 2.39e+06 M⁻¹ s⁻¹.

As to `CCC[C@@H](NC(=O)C1C(=O)C(CC)(CC)[C@@H]1Oc1ccc(C(=O)N2CCN(C)CC2)cc1)c1ccc(C)cc1` (stereo partly shown) [Compound 242], in test [2], the cell growth entry is on record as “complete restoration of cell growth” and the myeloid differentiation entry is “increased myeloid differentiation”. Further, in test [1], the kinact/KI is 1.7e+06 M⁻¹ s⁻¹. Also, in test [3], the “inhibition of the NE activity” value is listed as “more than 80%”. Also, in test [4], the “growth rate of control cells” value was “did not reduce the growth rate”.

In the case of `CCC[C@@H](NC(=O)C1C(=O)C(CC)(CC)[C@@H]1Oc1ccc(C(=O)N2CCN(CCC)CC2)cc1)c1ccc(C)cc1` (stereo partly shown) [Compound 253], the kinact/KI in test [1] was 1.77e+06 M⁻¹ s⁻¹.

`CCC[C@@H](NC(=O)C1C(=O)C(CC)(CC)[C@@H]1Oc1ccc(C(=O)N2CCN(c3ccccc3)CC2)cc1)c1ccc(C)cc1` (stereo partly shown) [Compound 245]: the kinact/KI in test [1] stood at 5.28e+06 M⁻¹ s⁻¹.

For `CCC[C@@H](NC(=O)C1C(=O)C(CC)(CC)[C@@H]1Oc1ccc(C(=O)N2CCNCC2)cc1)c1ccc(C)cc1` (stereo partly shown) [Compound 247], in test [1], the kinact/KI is 1.1e+06 M⁻¹ s⁻¹.

Take `CCC[C@@H](NC(=O)C1C(=O)C(CC)(CC)[C@@H]1Oc1ccc(C(=O)N2CCN(c3ncccn3)CC2)cc1)c1ccc(C)cc1` (stereo partly shown) [Compound 254]: the kinact/KI in test [1] came out at 2.14e+06 M⁻¹ s⁻¹.

Consider `CCC[C@@H](NC(=O)C1C(=O)C(CC)(CC)[C@@H]1Oc1ccc(C(=O)N2CCN(c3ccc(F)cc3)CC2)cc1)c1ccc(C)cc1` (stereo partly shown) [Compound 243], for which the kinact/KI in test [1] is 7.49e+06 M⁻¹ s⁻¹.

For `CCC[C@@H](NC(=O)C1C(=O)C(CC)(CC)[C@@H]1Oc1ccc(C(=O)N2CCN(c3cccc(Cl)c3)CC2)cc1)c1ccc(C)cc1` (stereo partly shown) [Compound 244], the kinact/KI in test [1] is 2.45e+06 M⁻¹ s⁻¹.

As for `CCC[C@@H](NC(=O)C1C(=O)C(CC)(CC)[C@@H]1Oc1ccc(C(=O)N2CCN(Cc3ccccc3)CC2)cc1)c1ccc(C)cc1` (stereo partly shown) [Compound 246], the kinact/KI in test [1] was 5.17e+06 M⁻¹ s⁻¹.

Regarding `CCC[C@@H](NC(=O)C1C(=O)C(CC)(CC)[C@@H]1Oc1ccc(C(=O)N2CCN(CC)CC2)cc1)c1ccc(C)cc1` (stereo partly shown) [Compound 252], the kinact/KI in test [1] was found to be 2.32e+06 M⁻¹ s⁻¹.

Regarding `CCC[C@@H](NC(=O)C1C(=O)C(CC)(CC)[C@@H]1Oc1ccc(C(=O)N2CCN(C3CC3)CC2)cc1)c1ccc(C)cc1` (stereo partly shown) [Compound 256], the kinact/KI in test [1] is 3.59e+06 M⁻¹ s⁻¹.
